Measurements published in patent publication US11253516B2, “N2,N4-diphenylpyrimidine-2,4-diamine derivative, method for preparing same, and pharmaceutical composition containing same as active ingredient for prevention or treatment of cancer” (Korea Research Institute of Chemical Technology, priority 2017, dated 2022).

Tests used:
[1] = target: EGFR wt. (Homo sapiens (Human), UniProt P00533); test: HTRF enzyme assay, wild-type EGFR; type: biochemical; details: recombinant enzyme
Protocol: (§1) The measurement of an activity on wild-type and EGFR mutation enzyme of the compound of the present invention was experimented by utilizing the HTRF system sold by Cisbio, as follow.
(§2) The composition of the assay buffer used in the activity measurement was 50 mM Tris-HCl pH 7.5, 100 mM NaCl, 7.5 mM MgCl2, 3 mM KCl, 0.01% Tween 20, 0.1% BSA, 1 mM DTT. The enzymatic reaction was carried out hereto by using the peptide substrate labeled with ATP of […] concentration and biotin of […] concentration. The analysis of an EGFR activity inhibitory effect of the compound was carried out in accordance with the analysis reaction recipe below.
(§3) Component 1: […] of EGFR wild-type or mutation enzyme
(§4) Component 2: […] of compound solution
(§5) Component 3: […] of peptide labeled with ATP and biotin
(§6) The enzymatic reaction was initiated by mixing Component 1 and Component 2 first, and then, adding component 3. After the reaction for 2 hours at 37° C., […] of a measurement solution consisting of streptavidin-XL665 provided by Cisbio and anti-phosphotyrosine antibody labeled with europium was added to the enzymatic reaction solution and reacted for 1 hour at ambient temperature. […] The measurement values measured at the seven concentrations of the compound were analyzed by using the Prism program (version 5.01, Graphpad Software, Inc.), and IC50 value of the compound was calculated, which is an inhibitory ability indicator.

[2] = target: EGFR del19/T790M/C797S (Homo sapiens, UniProt P00533, C797S/DEL746-750/T790M); test: HTRF enzyme assay, EGFR del19/T790M/C797S; type: biochemical; details: HTRF, recombinant enzyme; read-out: EGFR del19/T790M/C797S IC50
EGFR del19/T790M/C797S, sequence (P00533 with tags, fused parts or gaps C797S/DEL746-750/T790M limits assumed): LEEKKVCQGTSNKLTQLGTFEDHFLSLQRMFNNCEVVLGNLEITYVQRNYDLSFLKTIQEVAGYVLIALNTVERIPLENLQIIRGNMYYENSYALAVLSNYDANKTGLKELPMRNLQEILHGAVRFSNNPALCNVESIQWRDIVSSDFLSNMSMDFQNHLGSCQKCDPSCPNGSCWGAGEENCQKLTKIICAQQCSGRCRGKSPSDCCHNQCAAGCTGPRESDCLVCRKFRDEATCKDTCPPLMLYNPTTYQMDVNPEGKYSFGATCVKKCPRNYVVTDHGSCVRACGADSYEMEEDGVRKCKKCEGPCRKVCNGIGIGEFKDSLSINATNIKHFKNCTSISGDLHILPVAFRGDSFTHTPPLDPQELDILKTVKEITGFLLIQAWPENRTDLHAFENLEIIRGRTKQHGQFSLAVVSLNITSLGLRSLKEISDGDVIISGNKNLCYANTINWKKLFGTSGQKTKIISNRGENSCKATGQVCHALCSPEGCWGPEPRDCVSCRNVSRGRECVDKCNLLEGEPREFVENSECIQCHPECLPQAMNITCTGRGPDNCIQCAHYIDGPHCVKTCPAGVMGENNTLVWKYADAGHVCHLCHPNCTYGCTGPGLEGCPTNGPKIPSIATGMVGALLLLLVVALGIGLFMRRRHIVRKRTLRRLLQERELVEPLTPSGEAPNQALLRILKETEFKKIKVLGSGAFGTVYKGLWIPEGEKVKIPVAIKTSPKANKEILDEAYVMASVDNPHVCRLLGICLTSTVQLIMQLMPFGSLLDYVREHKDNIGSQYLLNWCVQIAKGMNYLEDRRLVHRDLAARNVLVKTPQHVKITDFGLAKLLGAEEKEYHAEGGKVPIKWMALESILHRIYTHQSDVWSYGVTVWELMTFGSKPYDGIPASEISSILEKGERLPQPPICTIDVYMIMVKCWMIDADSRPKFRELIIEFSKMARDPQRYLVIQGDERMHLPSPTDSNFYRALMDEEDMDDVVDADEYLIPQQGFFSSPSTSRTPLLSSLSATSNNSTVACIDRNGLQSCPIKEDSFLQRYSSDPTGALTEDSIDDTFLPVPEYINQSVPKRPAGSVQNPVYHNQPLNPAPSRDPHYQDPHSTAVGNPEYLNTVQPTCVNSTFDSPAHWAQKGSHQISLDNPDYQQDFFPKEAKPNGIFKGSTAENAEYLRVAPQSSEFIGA
Protocol: as §1, §2, §3, §4, §5, §6

[3] = target: EGFR del19/T790M (Homo sapiens (Human), UniProt P00533, DEL746-750/T790M); test: HTRF enzyme assay, EGFR del19/T790M; type: biochemical; details: recombinant enzyme
EGFR del19/T790M, sequence (P00533 other isoform, or with tags, fused parts or gaps T790M/del 1-668/del 746-750 limits assumed): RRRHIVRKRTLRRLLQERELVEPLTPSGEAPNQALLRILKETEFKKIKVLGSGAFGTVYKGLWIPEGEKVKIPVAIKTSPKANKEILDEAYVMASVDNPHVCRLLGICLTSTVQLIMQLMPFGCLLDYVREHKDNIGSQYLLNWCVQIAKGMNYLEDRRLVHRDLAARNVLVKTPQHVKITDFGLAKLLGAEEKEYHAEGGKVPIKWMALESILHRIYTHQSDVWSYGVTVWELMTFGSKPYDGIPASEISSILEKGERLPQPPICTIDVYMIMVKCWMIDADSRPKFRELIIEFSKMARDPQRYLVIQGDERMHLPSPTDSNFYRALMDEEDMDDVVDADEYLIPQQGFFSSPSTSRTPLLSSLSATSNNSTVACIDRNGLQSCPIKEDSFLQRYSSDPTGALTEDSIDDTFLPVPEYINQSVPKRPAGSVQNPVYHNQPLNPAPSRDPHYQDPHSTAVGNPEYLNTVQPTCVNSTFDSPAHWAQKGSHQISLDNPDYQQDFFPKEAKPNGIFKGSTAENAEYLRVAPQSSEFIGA
Protocol: as §1, §2, §3, §4, §5, §6

[4] = test system: Ba/F3 EGFR wt. cell line; test: CellTiter-Glo cell viability, Ba/F3 EGFR wild-type; type: cell-based; details: 72 hours
Protocol: (§7) The measurement of an activity on wild-type and mutation Ba/F3 EGFR cell line of the compound of the present invention was experimented by utilizing the CellTiter-Glo system sold by Promega, as follow. The CellTiter-Glo assay is a method for measuring the ATP present in cells in cell culture conditions to determine the cell viability.
(§8) The analysis of an EGFR inhibitory ability effect of the compound was carried out in accordance with the analysis reaction recipe below.
(§9) After the reaction of 72 hours, the plate treated with the compound was allowed to stand for 30 minutes at ambient temperature, and then, was further treated with 100 μl of the reagent, and was shaked for 10 minutes at ambient temperature. […] The measurement values measured at the eight concentrations of the compound were analyzed by using the Prism program (version 5.01, Graphpad Software, Inc.), and IC50 value of the compound was calculated, which is an inhibitory ability indicator.

[5] = test system: Ba/F3 EGFR del19 cell line; test: CellTiter-Glo cell viability, Ba/F3 EGFR del19; type: cell-based; details: 72 hours
Protocol: as §7, §8, §9

[6] = target: EGFR del19 (Homo sapiens (Human), UniProt P00533, DEL746-750); test: HTRF enzyme assay, EGFR del19; type: biochemical; details: recombinant enzyme
EGFR del19, sequence (P00533 other isoform, or with tags, fused parts or gaps del 1-668/del 746-750 limits assumed): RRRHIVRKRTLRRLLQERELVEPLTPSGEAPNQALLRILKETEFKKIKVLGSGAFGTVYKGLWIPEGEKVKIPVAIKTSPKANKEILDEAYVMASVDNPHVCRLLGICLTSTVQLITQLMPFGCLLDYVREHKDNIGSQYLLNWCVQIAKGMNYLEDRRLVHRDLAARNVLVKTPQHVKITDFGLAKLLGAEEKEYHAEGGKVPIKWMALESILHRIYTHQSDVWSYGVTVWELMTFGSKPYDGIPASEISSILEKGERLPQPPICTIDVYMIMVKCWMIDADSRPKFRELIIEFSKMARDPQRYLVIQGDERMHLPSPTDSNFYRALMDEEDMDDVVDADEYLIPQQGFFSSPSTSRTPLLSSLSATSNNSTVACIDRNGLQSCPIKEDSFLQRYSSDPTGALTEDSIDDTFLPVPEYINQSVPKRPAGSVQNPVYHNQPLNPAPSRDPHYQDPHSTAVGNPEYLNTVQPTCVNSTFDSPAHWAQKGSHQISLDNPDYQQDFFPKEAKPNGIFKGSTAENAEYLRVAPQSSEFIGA
Protocol: as §1, §2, §3, §4, §5, §6

[7] = test system: Ba/F3 EGFR del19/T790M/C797S cell line; test: CellTiter-Glo cell viability, Ba/F3 EGFR del19/T790M/C797S; type: cell-based; details: CellTiter-Glo, 72 hours, read-out: Ba/F3 EGFR del19/T790M/C797S IC50
Protocol: as §7, §8
(§10) After the reaction of 72 hours, the plate treated with the compound was allowed to stand for 30 minutes at ambient temperature, and then, was further treated with 100 μl of the reagent, and was shaked for 10 minutes at ambient temperature.

[8] = test system: Ba/F3 EGFR del19/T790M cell line; test: CellTiter-Glo cell viability, Ba/F3 EGFR del19/T790M; type: cell-based; details: CellTiter-Glo, 72 hours, read-out: Ba/F3 EGFR del19/T790M IC50
Protocol: as §7, §8, §10

EGFR wt., sequence (P00533 25-1210): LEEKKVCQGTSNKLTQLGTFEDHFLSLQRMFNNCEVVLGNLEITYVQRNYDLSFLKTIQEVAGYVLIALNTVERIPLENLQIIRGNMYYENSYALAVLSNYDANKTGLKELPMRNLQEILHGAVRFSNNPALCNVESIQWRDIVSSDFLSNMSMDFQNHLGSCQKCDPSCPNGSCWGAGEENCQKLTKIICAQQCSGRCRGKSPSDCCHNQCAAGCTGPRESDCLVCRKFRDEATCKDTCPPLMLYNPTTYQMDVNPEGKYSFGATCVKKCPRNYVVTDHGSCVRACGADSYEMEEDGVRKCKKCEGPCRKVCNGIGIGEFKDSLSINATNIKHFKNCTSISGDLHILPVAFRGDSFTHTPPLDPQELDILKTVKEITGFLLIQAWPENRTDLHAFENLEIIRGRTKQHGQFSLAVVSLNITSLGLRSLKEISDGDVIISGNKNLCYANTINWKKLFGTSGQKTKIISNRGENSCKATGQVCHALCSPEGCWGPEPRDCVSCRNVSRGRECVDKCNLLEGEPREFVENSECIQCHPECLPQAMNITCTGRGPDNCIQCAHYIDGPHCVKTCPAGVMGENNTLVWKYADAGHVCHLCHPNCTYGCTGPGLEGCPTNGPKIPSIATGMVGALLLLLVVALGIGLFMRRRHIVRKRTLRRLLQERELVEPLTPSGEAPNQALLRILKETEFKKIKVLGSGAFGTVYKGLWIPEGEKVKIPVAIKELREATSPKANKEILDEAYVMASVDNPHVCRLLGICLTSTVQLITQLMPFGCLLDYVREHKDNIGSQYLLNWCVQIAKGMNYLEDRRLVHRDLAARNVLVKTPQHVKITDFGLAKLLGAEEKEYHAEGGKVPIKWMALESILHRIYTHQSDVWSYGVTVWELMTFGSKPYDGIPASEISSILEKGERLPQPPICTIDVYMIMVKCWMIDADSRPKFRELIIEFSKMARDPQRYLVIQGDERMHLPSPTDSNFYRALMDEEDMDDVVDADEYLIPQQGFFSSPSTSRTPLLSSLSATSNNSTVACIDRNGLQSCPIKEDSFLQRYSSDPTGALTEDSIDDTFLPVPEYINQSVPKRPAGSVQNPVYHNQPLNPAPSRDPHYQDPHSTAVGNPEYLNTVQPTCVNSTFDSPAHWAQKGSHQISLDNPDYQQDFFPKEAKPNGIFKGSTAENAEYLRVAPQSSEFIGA

Row | Compound | IC50 [1] [nM] | IC50 [2] [nM] | IC50 [3] [nM] | IC50 [4] [nM] | IC50 [5] [nM] | IC50 [6] [nM] | IC50 [7] [nM] | IC50 [8] [nM]
1 | COc1cc(C2CCN(C3CCN(CCO)CC3)CC2)ccc1Nc1ncc(Cl)c(Nc2ccccc2NS(C)(=O)=O)n1 [Example 14, N-(2-((5-chloro-2-((4-(1′-(2-hydroxyethyl)-[1,4′-bipiperidin]-4-yl)-2-methoxyphenyl)amino)pyrimidin-4-yl)amino)phenyl)methanesulfonamide] | 1400 | 34 | 95 | 750 | 500 | 6 | 110 | 540
2 | COc1cc(C2CCN(C3CCNCC3)CC2)ccc1Nc1ncc(Cl)c(Nc2ccccc2NS(C)(=O)=O)n1 [Example 16, N-(2-((2-((4-([1,4′-bipiperidin]-4-yl)-2-methoxyphenyl)amino)-5-chloropyrimidin-4-yl)amino)phenyl)methanesulfonamide] | 5400 | 23 | 340 | > 10000 | > 10000 | 44 | > 10000 | 2300
3 | COc1cc(C2CCN(C3CCN(C)CC3)CC2)ccc1Nc1ncc(Cl)c(Nc2ccccc2NS(C)(=O)=O)n1 [Example 17, N-(2-((5-chloro-2-((2-methoxy-4-(1′-methyl-[1,4′-bipiperidin]-4-yl)phenyl)amino)pyrimidin-4-yl)amino)phenyl)methanesulfonamide] | 600 | 12 | 78 | 2100 | 2200 | 4 | 680 | 1700
4 | COc1cc(C2CCN(C3CCN(C(C)=O)CC3)CC2)ccc1Nc1ncc(Cl)c(Nc2ccccc2NS(C)(=O)=O)n1 [Example 18, N-(2-((2-((4-(1′-acetyl-[1,4′-bipiperidin]-4-yl)-2-methoxyphenyl)amino)-5-chloropyrimidin-4-yl)amino)phenyl)methanesulfonamide] | 970 | 30 | 92 | 4400 | 2700 | 13 | 2000 | 1400
5 | COc1cc(N2CCC(N3CCN(C(C)=O)CC3)CC2)ccc1Nc1ncc(Cl)c(Nc2ccccc2NS(C)(=O)=O)n1 [Example 19, N-(2-((2-((4-(4-(4-acetylpiperazin-1-yl)piperidin-1-yl)-2-methoxyphenyl)amino)-5-chloropyrimidin-4-yl)amino)phenyl)methanesulfonamide] | 700 | 42 | 69 | 3100 | 1100 | 0.7 | 970 | 660

The remaining lines, values ahead:

Row | IC50 [1] [nM] | IC50 [2] [nM] | IC50 [3] [nM] | IC50 [4] [nM] | IC50 [5] [nM] | IC50 [6] [nM] | IC50 [7] [nM] | IC50 [8] [nM] | Compound
6 | 160 | 5 | 14 | 2200 | 3600 | 0.1 | 1700 | 550 | COc1cc(N2CCC(N3CCNCC3)CC2)ccc1Nc1ncc(Cl)c(Nc2ccccc2NS(C)(=O)=O)n1 [Example 21, N-(2-((5-chloro-2-((2-methoxy-4-(4-(piperazin-1-yl)piperidin-1-yl)phenyl)amino)pyrimidin-4-yl)amino)phenyl)methanesulfonamide]
7 | 300 | 9 | 18 | 340 | 210 | 0.2 | 27 | 780 | COc1cc(N2CCN(C3CCN(C)CC3)CC2)ccc1Nc1ncc(Cl)c(Nc2ccccc2NS(C)(=O)=O)n1 [Example 25, N-(2-((5-chloro-2-((2-methoxy-4-(4-(1-methylpiperidin-4-yl)piperazin-1-yl)phenyl)amino)pyrimidin-4-yl)amino)phenyl)methanesulfonamide]
8 | 640 | 9 | 27 | 1400 | 1400 | 0.9 | 1700 | 690 | COc1cc(N2CCN(C)CC2)ccc1Nc1ncc(Cl)c(Nc2ccccc2NS(C)(=O)=O)n1 [Example 28, N-(2-((5-chloro-2-((2-methoxy-4-(4-methylpiperazin-1-yl)phenyl)amino)pyrimidin-4-yl)amino)phenyl)methanesulfonamide]
9 | 1200 | 7 | 4 | 2800 | 1900 | 5 | 2900 | 2100 | COc1cc(N2CCNCC2)ccc1Nc1ncc(Cl)c(Nc2ccccc2NS(N)(=O)=O)n1 [Example 29, 4-(4-((5-chloro-4-((2-(sulfamoylamino)phenyl)amino)pyrimidin-2-yl)amino)-3-methoxyphenyl)piperazine]
10 | 1800 | 3 | 34 | 5400 | 680 | 24 | 2700 | 850 | COc1cc(N2CCNCC2)ccc1Nc1ncc(Br)c(Nc2ccccc2NS(N)(=O)=O)n1 [Example 30, 4-(4-((5-bromo-4-((2-(sulfamoylamino)phenyl)amino)pyrimidin-2-yl)amino)-3-methoxyphenyl)piperazine]
11 | 1300 | 14 | 160 | 8000 | 1900 | 4 | 3300 | 1300 | COc1cc(N2CCOCC2)ccc1Nc1ncc(Cl)c(Nc2ccccc2NS(C)(=O)=O)n1 [Example 32, N-(2-((5-chloro-2-((2-methoxy-4-morpholinophenyl)amino)pyrimidin-4-yl)amino)phenyl)methanesulfonamide]
